# Results published in patent publication US10028931B2, “Synergistic compositions for treating microbial infections” (UNIVERSITY OF ROCHESTER, priority 2014, dated 2018).
# Read-outs that look alike come from different tables or passages of the source.
# Experiments:
# [1] = system: Staphylococcus aureus strain UAMS-1; experiment: Antimicrobial susceptibility testing (MIC, broth microdilution); assay type: cell-based; details: Staphylococcus aureus, UAMS1, 18 h, S. aureus UAMS-1, Mueller Hinton broth, 37° C., read-out: MIC
# Procedure: The RNase P inhibitors described herein were tested for antimicrobial activity toward Staphylococcus aureus strain UAMS-1. Individual wells of a 96-well microtiter plate were inoculated with ˜1×10^5 colony-forming units (CFU) of the indicated organism, containing two-fold increasing concentrations (from 0 to 256 μg mL^−1) of the indicated antibiotic or putative RnpA inhibitor, and incubated at 37° C. for 18 hours in Mueller Hinton broth. The MIC was defined as the lowest concentration of antibiotic in which there was no visible bacterial growth in the wells. Minimum bactericidal concentration testing was performed by enumerating the bacterial cells in each of the wells containing treatments at and above the MIC.
# RnpA = molecular target: T1, RnpA (Staphylococcus aureus, UniProt P0A0H5); experiment: RnpA mRNA degradation activity assay; assay type: biochemical
# T1 sequence (P0A0H5 1-117): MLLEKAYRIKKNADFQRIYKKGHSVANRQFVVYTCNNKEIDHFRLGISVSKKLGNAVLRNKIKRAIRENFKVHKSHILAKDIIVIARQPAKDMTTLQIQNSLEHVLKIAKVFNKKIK
# Procedure: The RNase P inhibitors described herein were tested for activity toward RnpA mRNA degradation activity. Either 1 μg of total S. aureus RNA or 1 pmol of in vitro synthesized spa mRNA was incubated with 20 pmol RnpA at 37° C. for 15 to 30 min in a reaction buffer (50 mM Tris-HCl pH 8.0, 2 mM NaCl, 2 mM MgCl2) in the absence or presence of the indicated compound. Reactions were stopped by adding an equal volume of 2×RNA loading dye (95% formamide, 0.025% SDS, 0.025% bromophenol blue, 0.025% xylene cyanol FF, 0.5 mM EDTA), run on a denaturing 1.0% agarose-0.66 M formaldehyde gel and stained with ethidium bromide. RNA substrates and corresponding degradation products were visualized using a FluorChem 5500 system (Alpha Innotech; San Leandro, Calif.). The inhibitory effects of the test compounds were measured using Image J densitometry software (National Institutes of Health; Bethesda, Md.) to quantify the signal intensity of the RNA band(s) in the negative control (RNA alone), positive control (RnpA+RNA+DMSO), and experimental samples (RnpA+RNA+test compound). The percent enzyme inhibition of test compounds was calculated using the following equation: Percent inhibition=[(experimental signal-positive control)/(negative control signal-positive control signal)]*100.
# [2] = molecular target: T2, S. aureus RNase P (RnpA+rnpB) (Staphylococcus aureus, UniProt P0A0H5); experiment: RNase P activity assay (precursor tRNA processing); assay type: biochemical; details: ptRNATyr processing, gel densitometry; read-out: RNase P IC50
# T2 sequence (P0A0H5 1-117): T1 sequence (P0A0H5 1-117)
# Procedure: The RNase P inhibitors described herein were tested for activity toward RNase P. S. aureus RNase P activity assays were performed in low salt buffer (50 mM Tris-HCl pH 8.0, 5 mM MgCl2) or in high salt buffer (50 mM Tris-HCl pH 8.0, 100 mM MgCl2, 800 mM NH4Cl). For all reactions, ptRNATyr, tRNATyr, or rnpB RNA species were first denatured by heating to 95° C. for 3 minutes, and then slowly cooling the mixtures to room temperature. RNase P was reconstituted by mixing an equal molar ratio of RnpB and RnpA for 15 min at 37° C. Precursor tRNA processing reactions (20 μL) were performed by mixing 1.25 pmol RNase P (RnpA+rnpB), RnpA, or rnpB with an equal volume of 2× low salt buffer or 2× high salt buffer and 10 pmol ptRNATyr. Mixtures were incubated for 15 min at 37° C. Reactions were stopped by adding 20 μL 2×RNA loading dye (95% formamide, 0.025% SDS, 0.025% bromophenol blue, 0.025% xylene cyanol FF, 0.5 mM EDTA), and 30 μL of each sample was electrophoresed in a 7 M urea/8% polyacrylamide gel and was then stained with ethidium bromide (0.5 μg/ml). Where indicated, reactions were repeated in the presence of the indicated amount of putative RnpA inhibitors or dimethyl sulfoxide (DMSO). A FluorChem 5500 imaging system was used to visualize the RNA, and the relative abundance of the mature tRNATyr band in the positive control (RNase P+DMSO) or in samples containing test compounds was measured using Image J densitometry software (NIH). The percent RNase P activity was then calculated using the following calculation: (test compound tRNATyr signal/positive control tRNATyr signal)*100.
# S. aureus strain UAMS-1 = experiment: Fractional Inhibitory Concentration testing with mupirocin; assay type: cell-based; details: combined with mupirocin, S. aureus UAMS-1, Mueller Hinton broth, 18 hours; synergistic FIC≤0.5
# Procedure: The RNase P inhibitors described herein were tested for Fractional Inhibitory Concentration (FIC) in the presence of mupirocin. FIC testing was performed to determine the combined effects of mupirocin and the RnpA inhibitors as described herein. Individual wells of a 96-well microtiter plate were inoculated with 1×10^5 CFU of S. aureus strain UAMS-1 in a Mueller Hinton broth. Each row of the plate contained increasing concentrations of RNPA1000 or RNPA2000 (two-fold increments; 0, 0.004, 0.008, 0.016, 0.03, 0.06, 0.125, 0.25, 0.5, 1, 2, or 4×MIC), whereas each column contained increasing concentrations of the indicated antibiotic (two-fold increments; 0, 0.06, 0.125, 0.25, 0.5, 1, 2, or 4×MIC). Plates were incubated for 18 hours at 37° C., and growth was detected by the unaided eye. The FIC was determined using the following formula: (MIC of Drug A in Combination/MIC of Drug A Alone)+(MIC of Drug B in Combination/MIC of Drug B Alone)=FIC. A synergistic interaction was defined as an FIC value≤0.5, no interaction as an FIC of 0.5-4, or an antagonistic interaction FIC>4.
# [3] = RnpA mRNA degradation, gel densitometry, read-out: RnpA IC50
SMILES,MIC [1] [µg/mL],IC50 (RnpA; [3]) [µM],IC50 [2] [µM],FIC with Mupirocin (S. aureus strain UAMS-1),IC50 (RnpA) [µM]
CC(C)c1ccc(OCC(=O)NNC(=S)NC(=O)c2ccccn2)cc1 [MC-190053],32,100,1,0.49,–
CC(C)c1ccc(OCC(=O)NNC(=S)NC(=O)c2cc3ccccc3[nH]2)cc1 [MC-190054],16,50,< 0.5,0.49,–
CC(C)c1ccc(OCC(=O)NNC(=S)NC(=O)c2c[nH]c3ccccc23)cc1 [MC-190055],32,40,90,0.56,–
COc1ccc2[nH]c(C(=O)NC(=S)NNC(=O)COc3ccc(C(C)C)cc3)cc2c1 [MC-190060],32,50,< 50,0.49,–
CC(C)c1ccc(OCC(=O)NNC(=S)NC(=O)c2cc3cc(Cl)ccc3[nH]2)cc1 [MC-190064],256,–,100,0.53,> 500
CC(C)c1ccc(OCC(=O)NNC(=S)NC(=O)c2cc3ccc(Cl)cc3[nH]2)cc1 [MC-190066],16,250,< 50,0.75,–
CCOc1ccccc1C(=O)NNC(=S)NC(=O)c1ccco1 [MC-190067],8 to 16,> 500,> 500,0.625,–
O=C(NC(=S)NNC(=O)C1C[C@H]1c1ccccc1)c1ccco1 (some centres unmarked) [MC-190068],32,> 500,370,0.5,–
CCOc1ccc(OCC(=O)NNC(=S)NC(=O)c2ccco2)cc1 [MC-190071],256,> 500,> 500,0.375,–
CC(C)c1ccc(OCC(=O)NNC(=S)NC(=O)c2cc3ccccc3s2)cc1 [MC-220001],> 256,50,100,0.56,–
Cc1ccccc1OCC(=O)NNC(=S)NC(=O)c1ccco1 [ST5522690],16,> 500,> 500,1,–
Cc1cc(OCC(=O)NNC(=S)NC(=O)c2ccc(Br)o2)ccc1Cl [ST5522821],16,35,220,0.75,–
Cc1occc1C(=O)NNC(=S)NC(=O)COc1ccc(Cl)cc1Cl [ST5523108],4,> 500,75,0.49,–
CC(C)c1ccccc1OCC(=O)NNC(=S)NC(=O)/C=C/c1cccs1 [ST5523210],32,45,110,0.75,–
